The values below come from ChEMBL document CHEMBL5380874, “Transformation of a Dopamine D2 Receptor Agonist to Partial Agonists as Novel Antipsychotic Agents” (J Med Chem, 2023).

In data set [1] the target is T1, D(2) dopamine receptor (Homo sapiens, UniProt P14416). As to the kind of experiment: Displacement of [3H]N-methylspiperone from Dopamine D2 receptor (unknown origin) expressed in HEK293T cell membrane incubated for 2 hrs by radioligand competitive binding based MicroBeta TriLux reader method. Format: cell membranes. In general terms: Loss of bound radioactivity is the signal in a displacement assay; it reports binding, not function.

Data set [2] in a line: Drug concentration in C57BL/6J mouse plasma at 5 mg/kg,ip measured at 2 hrs by LC-MS analysis. The class given is ADME, organism-based. The note with it: in vivo.
The nature of data set [3]: Ratio of drug concentration in brain to plasma in C57BL/6J mouse at 5 mg/kg,ip measured at 0.5 hrs by LC-MS analysis. The class given is ADME, organism-based. The note with it: read-out: BPR.
Data set [4] in a line: Drug concentration in C57BL/6J mouse brain at 5 mg/kg,ip measured at 2 hrs by LC-MS analysis. Format: ADME, organism-based. The note with it: read-out: Ct.
Data set [5] can be described thus: Ratio of drug concentration in brain to plasma in C57BL/6J mouse at 5 mg/kg,ip measured at 2 hrs by LC-MS analysis. Format: ADME, organism-based. The note with it: read-out: BPR.
Data set [6] is described as follows: Drug concentration in C57BL/6J mouse brain at 5 mg/kg,ip measured at 0.5 hrs by LC-MS analysis. The class given is ADME, organism-based. The note with it: read-out: Ct.
Data set [7] concerns the target T1, D(2) dopamine receptor. As to the kind of experiment: Partial agonist activity at Dopamine D2 receptor (unknown origin) expressed in HEK293T co-expressing G-alphai assessed as increase in cAMP accumulation incubated for 5 mins by BRET assay. The class given is functional, cell-based. A general note: Changes in cAMP serve as a functional read-out for many G protein-coupled receptors.

Data set [8] is described as follows: Drug concentration in C57BL/6J mouse plasma at 5 mg/kg,ip measured at 0.5 hrs by LC-MS analysis. Format: ADME, organism-based. The note with it: in vivo.
The target of data set [9] is T1, D(2) dopamine receptor. The data set can be described thus: Partial agonist activity at Dopamine D2 receptor (unknown origin) expressed in HEK293T coexpressing beta-arrestin-2 assessed as increase in cAMP accumulation incubated for 5 mins by beta-arrestin recruitment based BRET assay. The class given is functional, cell-based.

T1 sequence (P14416 whole entry): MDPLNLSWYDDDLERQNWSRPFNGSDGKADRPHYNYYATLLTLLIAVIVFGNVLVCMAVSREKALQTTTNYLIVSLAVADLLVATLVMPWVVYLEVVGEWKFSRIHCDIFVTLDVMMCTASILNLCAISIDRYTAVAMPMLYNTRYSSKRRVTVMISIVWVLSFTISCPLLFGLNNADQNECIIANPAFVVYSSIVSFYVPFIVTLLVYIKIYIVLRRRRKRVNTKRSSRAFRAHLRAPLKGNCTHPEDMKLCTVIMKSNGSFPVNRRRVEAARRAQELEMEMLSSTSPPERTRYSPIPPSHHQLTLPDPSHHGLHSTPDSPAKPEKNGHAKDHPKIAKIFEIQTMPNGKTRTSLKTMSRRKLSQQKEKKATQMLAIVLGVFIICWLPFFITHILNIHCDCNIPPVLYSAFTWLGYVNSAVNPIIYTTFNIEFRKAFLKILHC

Regarding `COc1cccc2c3c(oc12)CN(CCCCOc1ccc2ccc(=O)n(C)c2c1)CC3`, on D(2) dopamine receptor [1] (read-out: Ki), the Ki turned out to be 2280 nM.
In turn, `CCOc1cccc2cc(CNCCCCOc3ccc4c(c3)NC(=O)CC4)oc12` showed a Cp in [2] of 53.8 ng/mL. For the same molecule, the Kp at 0.5 h in data set [3] is 0.142. Moreover, in data set [4], the concentration at 2 h worked out at 6.05 ng/mL. Besides, the Kp at 2 h in data set [5] was 0.113. The concentration at 0.5 h in [6] came out at 168 ng/mL.
Consider `CC(C)Oc1cccc2c3c(oc12)CN(CCCCOc1ccc2ccc(=O)[nH]c2c1)CC3`, for which, on D(2) dopamine receptor [7] (hek293t), the EC50 entry is given as “Not Active”.
Regarding `CCOc1cccc2cc(CNCCCCOc3ccc4ccc(=O)[nH]c4c3)oc12`, the Cp came out at 792 ng/mL in data set [8] and 53.1 ng/mL in data set [2]. Also, the results for the EC50 at D(2) dopamine receptor [7] (read-out: EC50), on D(2) dopamine receptor [7] (read-out: pEC50 (converted)) and on D(2) dopamine receptor [9] (read-out: EC50) were 0.13 nM, 0.123 nM and 0.22 nM, respectively. Also, the figures for the Ki at D(2) dopamine receptor [1] (read-out: Ki) and at D(2) dopamine receptor [1] (read-out: pKi (converted)) were 0.12 nM and 0.129 nM, respectively. Further, the Kp at 0.5 h in [3] turned out to be 0.061. For the same molecule, in [4], the concentration at 2 h amounted to 5.76 ng/mL. For the same molecule, the Kp at 2 h in data set [5] was 0.109. In [6], the concentration at 0.5 h was determined as 48.3 ng/mL.
`O=C1CCc2ccc(OCCCCNCc3cc4ccccc4o3)cc2N1`: the EC50 worked out at 53.7 nM on D(2) dopamine receptor [7] (read-out: EC50) and 7.29 nM at D(2) dopamine receptor [9] (read-out: EC50). The Ki at D(2) dopamine receptor [1] (read-out: Ki) is 582 nM.
For the molecule `COc1cccc2c3c(oc12)CN(CCCCOc1ccc2c(c1)NC(=O)C2)CC3`, the EC50 at D(2) dopamine receptor [7] (read-out: EC50) is 869 nM; at D(2) dopamine receptor [9] (read-out: EC50), 1340 nM; at D(2) dopamine receptor [9] (read-out: pEC50 (converted)), 1410 nM. The Ki is 3190 nM at D(2) dopamine receptor [1] (read-out: Ki) and 3240 nM at D(2) dopamine receptor [1] (read-out: pKi (converted)).
Regarding `COc1cccc2c3c(oc12)CN(C/C=C/COc1ccc2ccc(=O)[nH]c2c1)CC3`, the EC50 at D(2) dopamine receptor [9] (read-out: EC50) was found to be 23 nM.
Take `COc1cccc2c3c(oc12)CN(CCCOc1ccc2ccc(=O)[nH]c2c1)CC3`: the EC50 on D(2) dopamine receptor [7] (read-out: EC50) came out at 0.31 nM; at D(2) dopamine receptor [9] (read-out: EC50), 26.6 nM.
For the molecule `COc1cccc2c3c(oc12)CN(CCCCOc1ccc2cccnc2c1)CC3`, the EC50 is 2210 nM at D(2) dopamine receptor [7] (read-out: EC50) and 518 nM at D(2) dopamine receptor [9] (read-out: EC50). For the same molecule, on D(2) dopamine receptor [1] (read-out: Ki), the Ki was 1340 nM.
`COc1cccc2cc(CNCCCCOc3ccc4ccc(=O)[nH]c4c3)oc12`: the Cp in [8] was 272 ng/mL; in data set [2] it was 6.95 ng/mL. Moreover, the Kp at 0.5 h in data set [3] turned out to be 0.118. In data set [4], the concentration at 2 h was 3.02 ng/mL. Besides, the Kp at 2 h in [5] is 0.434. For the same molecule, in data set [6], the concentration at 0.5 h was determined as 32.1 ng/mL.
Regarding `O=c1ccc2ccc(OCCCCNCc3cc4ccccc4o3)cc2[nH]1`, the results for the EC50 at D(2) dopamine receptor [7] (read-out: EC50) and at D(2) dopamine receptor [9] (read-out: EC50) were 25.8 nM and 2.51 nM, respectively. In addition, the Ki at D(2) dopamine receptor [1] (read-out: Ki) turned out to be 239 nM.
In the case of `CCOc1cccc2cc(CNCC[C@H]3CC[C@H](NC(=O)N4CCCC4)CC3)oc12`, the EC50 on D(2) dopamine receptor [7] (read-out: EC50) was found to be 10.9 nM; at D(2) dopamine receptor [9] (read-out: EC50), 6.2 nM. The Ki at D(2) dopamine receptor [1] (read-out: Ki) is 67.9 nM; at D(2) dopamine receptor [1] (read-out: pKi (converted)) it was 69.2 nM.
